From US20070149580A1, “USE OF PEROXISOME PROLIFERATOR ACTIVATED RECEPTOR DELTA AGONISTS FOR THE TREATMENT OF MS AND OTHER DEMYELINATING DISEASES” (AVENTIS PHARMACEUTICALS INC., priority 2004, published 2007)

Assays:
Format in all cases: cell-based
[1] = test system: mixed cultures of human oligodendrocytes; experiment: Human oligodendrocyte differentiation assay (O4 immunopositive cell count); conditions: FIGS. 5 and 6
Method: • 1. Human neurospheres collected from E19.5-[…] human embryo cortex) are cultured for 2 weeks in progenitor media: […] Neurospheres are dissociated with 20 U/ml papain at 37° C. for 30-50 min. • 3. Cells are plated onto PDL coated dishes at density of 50,000-100,000 cell/well in progenitor media containing PDGF/FGF and incubated at 37° C. with 5-6% CO2. • 4. Media and growth factors are replenished every 48 hr. Human Culture Compound Treatment: • 1. 24 to 48 hr after plating remove the old medium and add compounds in fresh medium (with mitogen) • 2. Compound dose response evaluations are performed at 3-6 different concentrations (10 µM, 1 µM, 100 nM, 10 nM, 1 nM, and 0.1 nM) • 3. […] Sequential staining is performed on oligodendrocyte populations with increasing degrees of cellular differentiation, as determined by days in vitro without PDGF and FGF. • 2. […] Colormetric visualization of the BrdU immunoreactivity is developed with DAB and total cell numbers are assessed using the counter-stain hematoxylin. • 4. BrdU immunopositive cells are counted by two independent observers. Rat/Mouse/Human Culture Image Analysis: Fluorescent microscopy is used to quantitate the extent of oligodendrocyte differentiation after compound exposure. […] Manual Cell Counting: Four fields are randomly selected for each experimental condition and 500-600 cells are counted in each field. […]

[2] = molecular target: T1, Mouse PPAR delta (Mus musculus, UniProt P35396); experiment: Mouse PPAR delta GAL4/luciferase reporter assay
T1 construct: expressed in transfected cells
T1 sequence (P35396 1-440): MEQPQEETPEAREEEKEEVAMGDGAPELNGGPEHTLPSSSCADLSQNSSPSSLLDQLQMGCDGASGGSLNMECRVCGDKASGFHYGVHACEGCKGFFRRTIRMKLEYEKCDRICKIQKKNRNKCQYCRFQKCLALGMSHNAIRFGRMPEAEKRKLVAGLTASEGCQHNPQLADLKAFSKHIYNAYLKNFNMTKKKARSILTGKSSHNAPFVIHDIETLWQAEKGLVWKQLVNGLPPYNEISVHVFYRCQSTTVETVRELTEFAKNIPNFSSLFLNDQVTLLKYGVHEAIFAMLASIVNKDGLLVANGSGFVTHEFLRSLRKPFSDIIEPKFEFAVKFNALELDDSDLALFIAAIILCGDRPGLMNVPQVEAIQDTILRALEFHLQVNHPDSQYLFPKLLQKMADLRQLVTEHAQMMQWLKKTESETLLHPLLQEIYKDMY
Method: The optimum nuclear receptor selectivity profile is determined by the GAL4/luciferase reporter assays.

[3] = molecular target: T2, human PPAR alpha (Homo sapiens, UniProt Q07869); experiment: Cellular PPAR alpha GAL4/luciferase reporter assay (HEK reporter cell line)
T2 construct: human PPAR alpha receptor (amino acids S167-Y468); expressed in transfected cells; host or cells: HEK cells, stably transfected (pcDNA3, CMV promoter)
T2 sequence (Q07869 167-468): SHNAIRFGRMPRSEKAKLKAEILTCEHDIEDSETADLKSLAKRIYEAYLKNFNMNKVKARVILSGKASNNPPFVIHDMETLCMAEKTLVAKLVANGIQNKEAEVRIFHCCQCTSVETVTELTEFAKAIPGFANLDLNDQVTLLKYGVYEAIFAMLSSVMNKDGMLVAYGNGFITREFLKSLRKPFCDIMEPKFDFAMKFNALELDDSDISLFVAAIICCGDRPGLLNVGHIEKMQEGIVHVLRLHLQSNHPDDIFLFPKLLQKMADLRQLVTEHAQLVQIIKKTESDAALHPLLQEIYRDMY
Method: The potency of substances which bind to human PPAR alpha and activate it in an agonistic manner is analyzed using a stably transfected HEK cell line (HEK=human embryo kidney) which is referred to here as PPAR alpha reporter cell line. It contains two genetic elements, a luciferase reporter element (pdeltaM-GAL4-Luc-Zeo) and a PPAR alpha fusion protein (GR-GAL4-humanPPAR alpha-LBD) which mediates expression of the luciferase reporter element depending on a PPAR alpha ligand. The stably and constitutively expressed fusion protein GR-GAL4-humanPPAR alpha-LBD binds in the cell nucleus of the PPAR alpha reporter cell line via the GAL4 protein portion to the GAL4 DNA binding motifs 5′-upstream of the luciferase reporter element which is stably integrated in the genome of the cell line. […] PPAR alpha ligands bind and activate the PPAR alpha fusion protein and thereby stimulate the expression of the luciferase reporter gene.
The finished PPAR alpha reporter cell line which contains a luciferase reporter element and constitutively expresses the PPAR alpha fusion protein (GR-GAL4-human PPAR alpha-LBD) was isolated by selection with zeocin (0.5 mg/ml) and G418 (0.5 mg/ml).

Row | Structure (SMILES) | number of O4 immunopositive cells [1] | EC50 [2] | EC50 [3]
1 | Cc1cc(SCc2sc(-c3ccc(C(F)(F)F)cc3)nc2C)ccc1OCC(=O)O [Compound 1] | increase | – | –
2 | CCCc1c(OCCCOc2ccc(OCC(=O)O)cc2)ccc(C(C)=O)c1O [Compound 2] | increase | 1000 nM | 1100 nM
